Data on one compound can be found in patent US9994515B2, “Aryl naphthyl methanone oxime(s) and process for preparation thereof” (Council of Scientific & Industrial Research, priority 2013, dated 2018).

Counter-ions that a name gives are not always drawn. Like-named read-outs stand apart in the source and are kept apart here.

The subject of one data set is DLD1. The data set can be described thus: Sulphorhodamine B assay in DLD1 colon cancer cells. The class given is cell-based. The following applies: Homo sapiens, DLD-1; SRB assay. (In general: The SRB assay estimates cell density from bound dye.)
For a further data set, the target named is T1, BCR-ABL (Homo sapiens, UniProt P00519).
T1 construct: Centans causes growth arrest and apoptosis in Bcr-Abl positive K562 cells; BCR (N-terminal part of breakpoint cluster region protein, P11274); endogenous in cells; host or cells: K562; the other entry of the earlier key: BCR (P11274, Breakpoint cluster region protein)
T1 sequence (P00519 with tags, fused parts or gaps): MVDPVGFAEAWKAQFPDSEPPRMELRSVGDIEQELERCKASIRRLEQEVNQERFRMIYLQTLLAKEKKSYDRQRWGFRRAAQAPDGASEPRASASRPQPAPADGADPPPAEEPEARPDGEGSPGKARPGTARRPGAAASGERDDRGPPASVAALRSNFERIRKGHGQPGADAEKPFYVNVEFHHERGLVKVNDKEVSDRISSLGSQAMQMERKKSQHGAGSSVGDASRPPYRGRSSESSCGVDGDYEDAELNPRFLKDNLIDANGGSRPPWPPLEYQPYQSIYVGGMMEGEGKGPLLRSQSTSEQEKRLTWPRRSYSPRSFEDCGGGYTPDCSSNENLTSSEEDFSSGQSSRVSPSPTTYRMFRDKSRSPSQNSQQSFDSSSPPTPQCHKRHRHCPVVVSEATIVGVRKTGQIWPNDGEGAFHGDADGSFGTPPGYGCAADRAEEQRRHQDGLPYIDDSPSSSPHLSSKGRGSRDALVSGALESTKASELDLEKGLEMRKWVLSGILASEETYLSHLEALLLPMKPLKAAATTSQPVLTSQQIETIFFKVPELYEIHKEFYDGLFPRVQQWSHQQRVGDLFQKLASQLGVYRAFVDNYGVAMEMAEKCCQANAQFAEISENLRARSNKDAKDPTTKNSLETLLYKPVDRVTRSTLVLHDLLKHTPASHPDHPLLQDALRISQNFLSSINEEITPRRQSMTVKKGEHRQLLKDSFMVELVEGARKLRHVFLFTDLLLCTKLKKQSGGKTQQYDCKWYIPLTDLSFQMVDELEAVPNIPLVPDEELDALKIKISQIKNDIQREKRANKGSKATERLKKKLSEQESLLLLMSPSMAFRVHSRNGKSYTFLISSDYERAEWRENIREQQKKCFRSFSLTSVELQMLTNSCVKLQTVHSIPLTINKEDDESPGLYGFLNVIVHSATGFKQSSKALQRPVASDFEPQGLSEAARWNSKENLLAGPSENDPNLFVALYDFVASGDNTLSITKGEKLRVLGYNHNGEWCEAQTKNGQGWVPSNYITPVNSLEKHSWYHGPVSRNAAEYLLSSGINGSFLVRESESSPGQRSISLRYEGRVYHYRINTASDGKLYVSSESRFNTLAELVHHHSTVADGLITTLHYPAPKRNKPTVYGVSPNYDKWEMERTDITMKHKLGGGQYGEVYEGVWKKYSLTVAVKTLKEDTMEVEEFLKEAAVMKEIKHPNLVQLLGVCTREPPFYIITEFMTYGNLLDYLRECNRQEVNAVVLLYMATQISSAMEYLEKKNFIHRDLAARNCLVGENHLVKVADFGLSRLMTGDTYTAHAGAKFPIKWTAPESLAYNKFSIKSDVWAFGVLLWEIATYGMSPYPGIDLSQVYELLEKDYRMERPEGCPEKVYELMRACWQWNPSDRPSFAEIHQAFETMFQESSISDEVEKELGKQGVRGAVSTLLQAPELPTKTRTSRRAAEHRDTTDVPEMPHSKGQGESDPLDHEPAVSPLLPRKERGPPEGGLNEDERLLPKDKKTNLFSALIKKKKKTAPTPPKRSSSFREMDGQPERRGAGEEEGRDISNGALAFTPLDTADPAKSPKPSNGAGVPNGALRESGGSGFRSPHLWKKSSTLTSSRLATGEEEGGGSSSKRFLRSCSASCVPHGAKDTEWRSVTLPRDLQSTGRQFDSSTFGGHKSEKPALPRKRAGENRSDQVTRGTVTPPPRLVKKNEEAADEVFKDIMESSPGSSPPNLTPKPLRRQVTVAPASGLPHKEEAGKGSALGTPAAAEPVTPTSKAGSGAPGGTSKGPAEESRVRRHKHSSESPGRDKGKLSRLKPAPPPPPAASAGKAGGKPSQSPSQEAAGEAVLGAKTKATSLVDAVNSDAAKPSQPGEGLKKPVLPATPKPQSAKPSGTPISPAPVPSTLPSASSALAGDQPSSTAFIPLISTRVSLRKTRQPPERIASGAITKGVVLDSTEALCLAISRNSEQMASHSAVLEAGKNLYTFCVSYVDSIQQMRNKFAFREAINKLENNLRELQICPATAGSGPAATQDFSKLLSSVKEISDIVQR
Put plainly: BCR-ABL phosphorylation by immunoblotting in K562 cells. Type of data set: cell-based. The settings on record: 0.5 μM, 1 μM Centans or 1 μM Imatinib, 48 h, western blot. As to the method:
Kinase activity of Bcr-Abl is the major cause of CML, and since Centans causes growth arrest and apoptosis in Bcr-Abl positive K562 cells, phosphorylation status of Bcr-Abl which is representative of its kinase activity was measured by immunoblotting.
FIG. 3. […] ELF4E and β-actin were used as loading control.

For a further data set, the system named is HEK-293. Put plainly: MTT assay in non-cancer HEK-293 cells. Type of data set: cell-based. A general note: Formazan colour is commonly taken as a measure of viable cells.
The target in a further data set is T2, EGFR (Homo sapiens, UniProt P00533).
T2 construct: Serum starved (A,C) MCF-7 cells and (B,D) MDA-MB231 cells were pre-incubated for 1 h; endogenous in cells; host or cells: MCF-7
T2 sequence (P00533 25-1210): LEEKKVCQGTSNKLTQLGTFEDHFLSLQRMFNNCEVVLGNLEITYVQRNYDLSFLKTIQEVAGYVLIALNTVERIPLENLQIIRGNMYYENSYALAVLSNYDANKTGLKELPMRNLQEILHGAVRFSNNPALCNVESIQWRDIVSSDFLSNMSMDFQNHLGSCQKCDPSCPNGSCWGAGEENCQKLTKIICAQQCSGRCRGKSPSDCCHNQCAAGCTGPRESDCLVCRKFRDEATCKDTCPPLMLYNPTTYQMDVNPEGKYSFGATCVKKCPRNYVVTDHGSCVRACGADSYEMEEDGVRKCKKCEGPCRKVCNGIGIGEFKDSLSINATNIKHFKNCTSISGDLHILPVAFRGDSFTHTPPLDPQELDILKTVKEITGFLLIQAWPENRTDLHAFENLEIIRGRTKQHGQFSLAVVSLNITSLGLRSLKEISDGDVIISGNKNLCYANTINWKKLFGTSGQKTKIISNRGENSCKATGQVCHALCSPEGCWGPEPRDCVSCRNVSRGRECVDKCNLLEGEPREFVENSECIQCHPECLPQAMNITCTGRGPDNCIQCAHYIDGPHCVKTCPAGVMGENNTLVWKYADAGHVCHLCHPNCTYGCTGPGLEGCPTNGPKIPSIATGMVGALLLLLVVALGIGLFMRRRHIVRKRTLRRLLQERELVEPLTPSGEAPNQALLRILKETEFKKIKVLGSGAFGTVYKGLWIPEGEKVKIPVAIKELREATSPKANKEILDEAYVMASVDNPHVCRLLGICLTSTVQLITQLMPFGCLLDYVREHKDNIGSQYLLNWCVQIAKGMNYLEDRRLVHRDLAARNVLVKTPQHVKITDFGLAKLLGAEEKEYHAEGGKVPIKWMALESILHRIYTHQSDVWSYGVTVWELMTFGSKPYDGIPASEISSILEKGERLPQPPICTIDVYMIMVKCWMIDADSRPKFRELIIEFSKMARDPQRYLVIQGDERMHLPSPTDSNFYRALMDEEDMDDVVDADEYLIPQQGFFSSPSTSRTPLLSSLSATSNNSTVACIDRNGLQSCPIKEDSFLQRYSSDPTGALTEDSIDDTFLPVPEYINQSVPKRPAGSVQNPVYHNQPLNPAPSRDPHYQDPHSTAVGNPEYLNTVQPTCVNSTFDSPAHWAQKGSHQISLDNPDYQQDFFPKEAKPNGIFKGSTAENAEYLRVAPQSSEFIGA
Put plainly: EGF dependent EGFR phosphorylation ELISA in MCF-7 cells. The settings on record: EGF stimulated, Tyr1068, ELISA, read-out: IC50 in terms of EGFR phosphorylation. The class given is cell-based. As to the method:
Since EGFR and Her2 play major roles in breast cancer development and metastatis, the effect of Centans on regulation of these two factors was evaluated in MCF-7 and MDA-MB-231 cells by enzyme-linked immunosorbant assays (ELISA). As depicted in FIGS. 7. A and B, EGF dependent EGFR phosphorylation at Tyr^1068 was strongly attenuated by Centans in both MCF-7 and MDA-MB-231 cells and this effect was much stronger than that of Gefitinib (marketted EGFR inhibitor/anti-cancer drug).
FIG. 7. Inhibition of EGFR and Her2 phosphorylation by Centans in MCF-7 and MDA-MB231 cells. Serum starved (A,C) MCF-7 cells and (B,D) MDA-MB231 cells were pre-incubated for 1 h with the indicated concentrations of Centans prior to stimulation with EGF for 15 min and EGFR (A and B) or Her2 (C and D) phosphorylation were measured by ELISA. Gef=Gefitinib. All doses are in μM.
On the technique in general: In an ELISA, binding on a coated surface is turned into a signal by an enzyme label.

Another data set has as its system HL-60. Put plainly: Annexin V/PI flow cytometry (phosphatidylserine exposure) in HL-60. The class given is cell-based. The settings on record: 5 μM, 24 h. As to the method: (§1) To determine whether cell death caused by Centans is specifically associated with apoptosis: phosphatidylserine exposure (Annexine V/PI; Flow cytometry) was performed in K562 and HL-60 cell-lines. As apparent form FIG. 1, treatment with Centans caused a robust and dose-dependent increase in phosphatidylserine exposure, which reached 5 fold over vehicle with 5 μM ANS in K562 and about 3 fold in HL-60.
(§2) FIG. 1 Centans induces Apoptosis in K562 and HL-60 cells. (A and B) Centans increases phosphatidylserine exposure—K562 (A) and HL-60 (B) cells were treated with vehicle (DMSO) or Centans (dissolved in DMSO) at indicated concentrations for 24 h and phosphatidylserine exposure was assessed by flow cytometry using the FL1-H channel (Annexin-V) and FL2-H channel (PI). Representative dot plots and relative apoptotic cell in the graph are shown. C and D is the graphical representation of data pooled from three independent experiments. *P<0.05, **P<0.01 ***P<0.001 compared to vehicle treated control.

In data set [1] the test system is K562. Put plainly: MTT cytotoxicity assay in K562 cells. The class given is cell-based. The settings on record: Homo sapiens, K562, 48 h, Table 3; MTT, 48 h, 10 point dose response; read-out: IC 50 K562.
In the next data set the test system is Ishikawa. Put plainly: MTT assay in Ishikawa endometrial adenocarcinoma cells. The class given is cell-based. The following applies: Homo sapiens, Ishikawa, Table 6, 48 h, 10 point dose response.
The subject of the next data set is MCF-7. The data set can be described thus: Annexin V/PI apoptosis flow cytometry in MCF-7. The class given is cell-based. The settings on record: 24 h. As to the method: (§3) To assess if the cell death induced by centans in MCF-7 and MDA-MB231 lines is apoptotic in nature, apoptosis was measured by flow cytometry using annexin V/PI staining kit from Sigma according to manufacturer's instructions.
(§4) FIG. 6 Apoptosis induction by Centans in breast cancer cells. Annexin V/PI staining of (A) MCF-7 and (B) MDA-MB231 cells were treated with vehicle (DMSO) or Centans at indicated concentrations for 24 h and […] was assessed by flow cytometry using the FL1-H channel (Annexin-V) and FL2-H channel (PI) of a Becton Dickinson FACS Calibur. Shown are representative dot plots. Quantification of flow cytometry data shown as percent of total cells (right panel). Data presented as mean±SEM from three independent experiments; *P<0.05, **P<0.01, and ***P<0.001 compared to control.

A further data set relates to MCF-7 xenograft tumor. The data set can be described thus: MCF-7 xenograft tumor in nude mice. Type of data set: in vivo, mouse. The settings on record: 16 mg·kg−1·day−1. The source says: The effect of Centans on the growth of MCF-7 xenograft tumor was studied. […] Beyond 25 d, vehicle treated mice bearing tumors (control) show significant mortality (data not shown).
Tumors from mice treated with Centans presented with large areas of stroma where deletion of epithelial cells had occurred as evident from few mitotic figures (FIG. 8B).
FIG. 8 Regression of xenograft tumor by Centans in athymic nude mice. (A) Increase in relative tumor volume over time in various treatment groups indicated. N=10 mice/group; data represent mean±S.E.M. *P<0.05 and **P<0.01 compared to vehicle (carboxymethyl cellulose). (B) Effect of Centans treatment on tumor morphology. Representative tumor sections from mice treated with vehicle or Centans (16 mg·kg^−1·day^−1) for 25 days. (C) Effect of Centans treatment on PCNA levels were analyzed by Western blotting from in tumors of vehicle or Centans treated mice. Data represent mean±S.E.M. **P<0.01 compared to vehicle-treated control.

For data set [2], the system named is K562. Put plainly: Annexin V/PI flow cytometry (phosphatidylserine exposure) in K562. Type of data set: cell-based. The following applies: 5 μM, 24 h. As to the method:
as §1, §2

For the next data set, the system named is Kasumi 1. Put plainly: Cytotoxicity in Kasumi 1 cells. Type of data set: cell-based. The settings on record: Table 2; oxalate.
In another data set the test system is HL60. The data set can be described thus: MTT cytotoxicity assay in HL-60 cells. The settings on record: Homo sapiens. Type of data set: cell-based.
Data set [3] concerns MDA-MB231. The data set can be described thus: Annexin V/PI apoptosis flow cytometry in MDA-MB231. The settings on record: 24 h. The class given is cell-based. As to the method:
as §3, §4

A further data set has as its system SW620. Put plainly: Sulphorhodamine B assay in SW620 colon cancer cells. Type of data set: cell-based. The settings on record: Homo sapiens, SW-620; SRB assay.
The next data set has as its system HCT116. The data set can be described thus: Sulphorhodamine B assay in HCT116 colon cancer cells. The class given is cell-based. The following applies: Homo sapiens, HCT-116; SRB assay.
In data set [4] the test system is MDA-MB231. The data set can be described thus: MTT assay in MDA-MB-231 breast tumor cells. The class given is cell-based. The following applies: Homo sapiens, MDA-MB-231, Table 6, 48 h, 10 point dose response.

With `CCN(CC)CCO/N=C(/c1ccc(SC)cc1)c1cccc2ccccc12` [Compound 5d, (4-(methylthio)phenyl)(naphthalen-1-yl)methanone O-2-(diethylamino)ethyl oxime oxalate], the IC50 in the data set with DLD1 came to 15.6 µM; on EGFR, 0.0147 µM; in the data set on K562 [1], 3.61 µM; with Ishikawa, 12 µM; with Kasumi 1, 6.78 µM; with HL60 (HL-60, 48 h, Table 3, MTT, 48 h, 10 point dose response, read-out: IC 50 HL 60) it was 5.99 µM. In addition, the IC50 came to 5.99 µM with HL60 (HL-60, Table 2); 8.78 µM with SW620; 7.7 µM in the data set with HCT116; 7.2 µM in the data set on MDA-MB231 [4]. Further, at BCR-ABL, the “phosphorylation of BCR-ABL (pBCR-ABL)” value is listed as “dose dependently inhibited phosphorylation of BCR-ABL”. Also, in the data set with HEK-293, the “cytotoxicity in non-cancer cell-line HEK-293” value is “not in non-cancer cell-lines Vero and HEK-293”. Moreover, the “increase in phosphatidylserine exposure over vehicle” value is on record as “about 3 fold” in the data set with HL-60 and 5 fold in the data set on K562 [2]. The apoptotic cell population result in the data set on MCF-7 and in the data set on MDA-MB231 [3] was “concentration-dependent increase in apoptotic cell population” throughout. In addition, the “reduction in relative tumor volume compared to vehicle treated mice” value in the data set with MCF-7 xenograft tumor (days 21 and 25 after inoculation) is listed as roughly 50%. Also, the “PCNA levels in tumors” value in the data set on MCF-7 xenograft tumor (western blotting) is “significant reduction in the levels of PCNA”.
